Several values for one entry are separate records, joined by “and”; a condition that tells them apart may be missing. Equal values may be shown once. Read-outs that look alike come from different tables or passages of the source.
Key:
K562 cell line = test: SRB cytotoxicity assay, K562 leukaemia cell line; conditions: Homo sapiens, K562, 72 h
Experimental: (§1) All reagents and chemicals of analytical grade were obtained from Sigma (Dorset, UK); unless stated otherwise. All chemicals, reagents and solvents (of analytical grade) were used directly without further purification. MCF7 cell line ATCC® HTB-22™, T47D cell line ATCC® HTB-133™, K562 cell line ATCC® CCL-243™, Panc1 cell line ATCC® CRL-1469™. A375.S2 cell line ATCC® CRL-1872™, A549 cell line ATCC® CCL-185™, HELA cell line ATCC® CCL-2™ were cultured in Dulbecco’s modified eagle’s medium (DMEM). (DMEM) containing foetal bovine serum (FBS) (Bio Whittaker, Verviers, Belgium), 4-(2-hydroxyethyl)-1-piperazine ethane sulfonic acid (HEPES) Buffer, L-glutamine, gentamicin, penicillin, and streptomycin sulphate (Sigma, St. Luis, MO, USA), trypsin, trypan blue, Ciprofloxacin HCl from Aarti drugs Ltd/India, was a kind gift from Pharma International Company- Amman; Fluconazole from Neopharma, United Arab Emirates, a kind gift from Pharmaceutical Research Unit, Amman; Trypon soya agar (TSA), trypon soya broth (TSB), sabouraud dextrose agar (SDA) were obtained from Liofilchem (Italy) or Oxoid LTD (Basingstoke, England), they were reconstituted and sterilized by autoclave at 121 °C for 15 min.
(§2) The cytotoxicity measurements were determined using Sulforhodamine B (SRB) colorimetric assay for cytotoxicity screening. The mechanism of reduction of cell viability was adopted as described previously (Arabiyat et al., 2016a,b; 2017; Alabsi et al., 2018; Jumah, 2018; AlShahrabi et al., 2020). Human periodontal ligament fibroblasts (PDL) are a primary normal cell culture for verification of selective cytotoxicity. […] Selectivity ratio as indicative factor of the safety of compounds was calculated by dividing IC50 of tested compound on normal fibroblasts by IC50 of the same compound on specific pathological cell line (Hoffman et al., 2011).

HELA cell line = test: SRB cytotoxicity assay, HELA cervical cancer cell line; conditions: Homo sapiens, HeLa, 72 h
Experimental: as §1, §2

PDL Fibroblasts = test: SRB cytotoxicity on normal periodontal ligament fibroblasts, selective cytotoxicity; assay type: cell-based, Human; conditions: for IC50: Homo sapiens, Fibroblast, normal fibroblasts, SRB, 72 h, mean ± SD; for Selectivity index SI (HELA): IC50 on PDL fibroblasts divided by IC50 on HELA; for Selectivity index SI (K562): IC50 on PDL fibroblasts divided by IC50 on K562; for Selectivity index SI (A562): IC50 on PDL fibroblasts divided by IC50 on the cell line printed as A562
Experimental: as §2

A549 cell line = test: SRB cytotoxicity assay, A549 lung cancer cell line; conditions: Homo sapiens, A549, 72 h, read-out: Cytotoxicity IC50 value, A549 cell line
Experimental: as §1, §2

PANC 1 cell line = test: SRB cytotoxicity assay, PANC 1 pancreatic cancer cell line; conditions: Homo sapiens, PANC-1, 72 h, read-out: Cytotoxicity IC50 value, PANC 1 cell line
Experimental: as §1, §2

A375.S2 cell line = test: SRB cytotoxicity assay, A375.S2 melanoma cell line; conditions: Homo sapiens, A375-S2, 72 h, read-out: Cytotoxicity IC50 value, A375.S2 cell line
Experimental: as §1, §2

MCF7 cell line = test: SRB cytotoxicity assay, MCF7 breast cancer cell line; conditions: Homo sapiens, MCF7, 72 h, read-out: Cytotoxicity IC50 value, MCF7 cell line
Experimental: as §1, §2

T47D cell line = test: cells; conditions: Homo sapiens, T47D, 72 h, read-out: Cytotoxicity IC50 value, T47D cell line
Experimental: as §1, §2

[1] = read-out: Cytotoxicity IC50 value, K562 cell line, SRB, 72 h, 0.1-200 μg/mL range, mean ± SD, value in brackets
[2] = read-out: Cytotoxicity IC50 value, K562 cell line, SRB, 72 h, 0.1-200 μg/mL range, mean ± SD, NI = lack of cytotoxicity in range
[3] = read-out: Cytotoxicity IC50 value, HELA cell line, SRB, 72 h, 0.1-200 μg/mL range, mean ± SD, value in brackets
[4] = read-out: Cytotoxicity IC50 value, HELA cell line, SRB, 72 h, 0.1-200 μg/mL range, mean ± SD, NI = lack of cytotoxicity in range
[5] = 0.1-200 μg/mL range, NI = lack of cytotoxicity in range

Row | SMILES | IC50 (K562 cell line; [1]) [µg/mL] | IC50 (K562 cell line; [2]) | IC50 (HELA cell line; [3]) [µg/mL] | IC50 (HELA cell line; [4]) | IC50 (PDL Fibroblasts; [5]) | IC50 (PDL Fibroblasts; value in brackets) [µg/mL] | Selectivity index SI (HELA) (PDL Fibroblasts) | IC50 (A549 cell line) | IC50 (PANC 1 cell line) | IC50 (A375.S2 cell line) | IC50 (MCF7 cell line) | IC50 (T47D cell line) | Selectivity index SI (PANC 1) (PDL Fibroblasts; IC50 on PDL fibroblasts divided by IC50 on PANC 1) | Selectivity index SI (K562) (PDL Fibroblasts) | Selectivity index SI (A562) (PDL Fibroblasts)
1 | O=C(O)c1cn(C2CC2)c2c([N+](=O)[O-])c(NC3CCCCC3)c(F)cc2c1=O [7a, 7-cyclohexylamino-1-cyclopropyl-6-fluoro-8-nitro-4-oxo-1,4-dihydro-quinoline-3-carboxylic acid] | 11 | 28.2 ± 2.04 µM | 0.16 | 0.4 ± 0.05 µM | 29.9 ± 3.56 µM | 11.6 | 74.66 | 240 µM and 93.6 µg/mL | 13.2 µM and 5.15 µg/mL | 246 µM and 102 µg/mL | > 200 µg/mL | 51.2 µM and 19.9 µg/mL |  |  | 
2 | CCn1cc(C(=O)O)c(=O)c2cc(F)c(Nc3ccc(OC)cc3OC)c([N+](=O)[O-])c21 [11c, 7-(2,4-dimethoxy-phenylamino)-1-ethyl-6-fluoro-8-nitro-4-oxo-1,4-dihydro-quinoline-3-carboxylic acid] |  | > 200 µg/mL |  | > 200 µg/mL | 285 ± 28.7 µM | 123 |  | > 200 µg/mL | 124 µM and 53.3 µg/mL | > 200 µg/mL | > 200 µg/mL | 431 µM and 186 µg/mL | 2.31 |  | 
3 | COc1cccc(-n2nnc3c4c(cc(F)c32)c(=O)c(C(=O)O)cn4C2CC2)c1 [5b, 9-cyclopropyl-4-fluoro-3-(3-methoxy-phenyl)-6-oxo-6,9-dihydro-3H-[1,2, and 3] triazolo [4,5-h] quinoline-7-carboxylic acid] | 4.56 | 11.6 ± 0.61 µM | 26.3 | 66.9 ± 2.73 µM | 143 ± 10.8 µM | 56.4 |  | 196 µM and 77.2 µg/mL | 178 µM and 70.2 µg/mL | 364 µM and 143 µg/mL | 112 µM and 44.2 µg/mL | 18 µM and 7.08 µg/mL |  | 12.35 | 
4 | COc1ccc(Nc2c(F)cc3c(=O)c(C(=O)O)cn(C4CC4)c3c2[N+](=O)[O-])c(OC)c1 [3g, 1-cyclopropyl-7-(2,4-dimethoxy-phenylamino)-6-fluoro-8-nitro-4-oxo-1,4-dihydro-quinoline-3-carboxylic acid] |  | > 200 µg/mL |  | > 200 µg/mL | > 200 µg/mL |  |  | > 200 µg/mL | > 200 µg/mL | > 200 µg/mL | > 200 µg/mL | > 200 µg/mL |  |  | 
5 | CCCCc1ccc(Nc2c(F)cc3c(=O)c(C(=O)O)cn(C4CC4)c3c2[N+](=O)[O-])cc1 [3e, 1-cyclopropyl-6-fluoro-7-(4-butyl-phenylamino)-8-nitro-4-oxo-1,4-dihydro-quinoline-3-carboxylic acid] | 0.71 | 1.62 ± 0.16 µM | 498 | 1130 ± 65.6 µM | 711 ± 44.9 µM | 313 |  | 64.2 µM and 28.2 µg/mL | 12.2 µM and 5.38 µg/mL | 144 µM and 63.5 µg/mL | 428 µM and 188 µg/mL | 406 µM and 178 µg/mL |  | 439.01 | 
6 | COc1ccc(Nc2c(F)cc3c(=O)c(C(=O)O)cn(C4CC4)c3c2N)cc1 [4c, 8-amino-1-cyclopropyl-6-fluoro-7-(4-methoxy-phenylamino)-4-oxo-1,4-dihydro-quinoline-3-carboxylic acid] | 20 | 52.1 ± 6.9 µM | 97.8 | 255 ± 2.15 µM | 138 ± 8.26 µM | 53 |  | 5.11 µM and 1.96 µg/mL | 72.1 µM and 27.6 µg/mL | 248 µM and 95 µg/mL | 57.4 µM and 22 µg/mL | 77.2 µM and 29.6 µg/mL |  |  | 27.07
7 | COc1cccc(Nc2c(F)cc3c(=O)c(C(=O)O)cn(C4CC4)c3c2[N+](=O)[O-])c1 [3b, 1-cyclopropyl-6-fluoro-7-(3-methoxy-phenylamino)-8-nitro-4-oxo-1,4-dihydro-quinoline-3-carboxylic acid] |  | > 200 µg/mL |  | > 200 µg/mL | > 200 µg/mL |  |  | > 200 µg/mL | > 200 µg/mL | > 200 µg/mL | > 200 µg/mL | > 200 µg/mL |  |  | 
8 | CCc1ccc(Nc2c(F)cc3c(=O)c(C(=O)O)cn(C4CC4)c3c2N)cc1 [4d, 8-Amino-1-cyclopropyl-6-fluoro-7-(4-ethyl-phenylamino)-4-oxo-1,4-dihydro-quinoline-3-carboxylic acid] | 15.9 | 41.8 ± 4.98 µM | 51.7 | 136 ± 4.58 µM | 50.4 ± 4.28 µM | 19.2 |  | 20.2 µM and 7.72 µg/mL | 65.3 µM and 24.9 µg/mL | 47 µM and 17.9 µg/mL | 21.3 µM and 8.14 µg/mL | 53.7 µM and 20.5 µg/mL |  |  | 2.49
9 | CCn1cc(C(=O)O)c(=O)c2cc(F)c(Nc3ccccc3OC)c(N)c21 [12a, 8-amino-1-ethyl-6-fluoro-7-(2-methoxy-phenylamino)-4-oxo-1,4-dihydro-quinoline-3-carboxylic acid] | 7.79 | 21 ± 0.62 µM | 9.45 | 25.4 ± 3.92 µM | 170 ± 15.1 µM | 63.2 |  | > 200 µg/mL | 142 µM and 52.6 µg/mL | 373 µM and 138 µg/mL | 125 µM and 46.5 µg/mL | 83.5 µM and 31 µg/mL |  | 8.10 | 
10 | COc1ccccc1Nc1c(F)cc2c(=O)c(C(=O)O)cn(C3CC3)c2c1N [4a, 8-amino-1-cyclopropyl-6-fluoro-7-(2-methoxy-phenylamino)-4-oxo-1,4-dihydro-quinoline-3-carboxylic acid] | 16.9 | 44 ± 3.88 µM | 15.5 | 40.4 ± 6.03 µM | 140 ± 10.5 µM | 53.8 | 3.46 | 153 µM and 58.7 µg/mL | 113 µM and 43.4 µg/mL | 72.3 µM and 27.8 µg/mL | > 200 µg/mL | 95.8 µM and 36.8 µg/mL |  |  | 

From article PMC8325119, “A Novel Class of Functionalized Synthetic Fluoroquinolones with Dual Antiproliferative - Antimicrobial Capacities” (Asian Pacific Journal of Cancer Prevention : APJCP, 2021)
